PubChem BioAssay AID248 (DTP/NCI, 2004)
“And” between values parts separate entries of the source, which are not always exact repeats. Equal entries are not always repeated. Toxic doses and inconclusive results are not listed. No stated cut-off is given here; in the data, active means T/C of 150% or more; inactive means T/C below 125%.

System: L1210 leukemia ip in BDF1 mice, survival T/C
Assay: NCI In Vivo Anticancer Drug Screen. Data for tumor model L1210 Leukemia (intraperitoneal) in B6D2F1 (BDF1) mice
Conditions: endpoint: mean survival time, higher = longer survival
Summary of the method: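 Survival endpoint. Drug-treated group vs vehicle group, expressed as T divided by C. Tumor passaged by transplantation.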

[1] = dose: 100.0 mg/kg/injection, schedule: Q01DX009 (ip), vehicle: saline with Tween-80
[2] = dose: 200.0 mg/kg/injection, schedule: Q01DX009 (ip), vehicle: saline with Tween-80
[3] = dose: 100.0 mg/kg/injection, schedule: Q01DX001 (ip), vehicle: saline
[4] = dose: 200.0 mg/kg/injection, schedule: Q01DX001 (ip), vehicle: saline
[5] = dose: 100.0 mg/kg/injection, schedule: Q01DX009 (ip), vehicle: Klucel (hydroxypropylcellulose) (HPC)
[6] = dose: 100.0 mg/kg/injection, schedule: Q04DX003 (ip), vehicle: Klucel (hydroxypropylcellulose) (HPC)
[7] = dose: 200.0 mg/kg/injection, schedule: Q01DX009 (ip), vehicle: Klucel (hydroxypropylcellulose) (HPC)
[8] = dose: 200.0 mg/kg/injection, schedule: Q04DX003 (ip), vehicle: Klucel (hydroxypropylcellulose) (HPC)
[9] = dose: 400.0 mg/kg/injection, schedule: Q01DX009 (ip), vehicle: Klucel (hydroxypropylcellulose) (HPC)
[10] = dose: 50.0 mg/kg/injection, schedule: Q01DX009 (ip), vehicle: Klucel (hydroxypropylcellulose) (HPC)
[11] = dose: 100.0 mg/kg/injection, schedule: Q04DX002 (ip), vehicle: Klucel (hydroxypropylcellulose) (HPC)
[12] = dose: 100.0 mg/kg/injection, schedule: Q04DX003 (ip), vehicle: saline with Tween-80
[13] = dose: 200.0 mg/kg/injection, schedule: Q04DX003 (ip), vehicle: saline with Tween-80
[14] = dose: 400.0 mg/kg/injection, schedule: Q04DX003 (ip), vehicle: saline with Tween-80
[15] = dose: 100.0 mg/kg/injection, schedule: Q01DX001 (ip), vehicle: other
[16] = dose: 200.0 mg/kg/injection, schedule: Q01DX001 (ip), vehicle: other

Measured: T/C

Cc1ccc(Nc2ccc(O)c3c2C(=O)c2ccccc2C3=O)c(Br)c1
inactive: dose: 75.0 mg/kg/injection, schedule: Q01DX001 (ip), vehicle: steriod suspending solution 96 % of control | dose: 150.0 mg/kg/injection, schedule: Q01DX001 (ip), vehicle: steriod suspending solution 100 % of control | dose: 300.0 mg/kg/injection, schedule: Q01DX001 (ip), vehicle: steriod suspending solution 93 % of control

CC(C(=O)O)c1ccccc1 (configuration not stated)
inactive: dose: 12.5 mg/kg/injection, schedule: Q01DX009 (ip), vehicle: saline with Tween-80 95 % of control | dose: 25.0 mg/kg/injection, schedule: Q01DX009 (ip), vehicle: saline with Tween-80 95 % of control | dose: 50.0 mg/kg/injection, schedule: Q01DX009 (ip), vehicle: saline with Tween-80 95 % of control and 90 % of control

CC(=O)NCCCCC(=O)c1ccccc1
inactive: [1] 102 % of control | [2] 100 % of control

Cc1cc(C)c(S(=O)(=O)O)c(Cc2cccc3ccccc23)c1
inactive: dose: 25.0 mg/kg/injection, schedule: Q01DX009 (ip), vehicle: saline 94 % of control | dose: 50.0 mg/kg/injection, schedule: Q01DX009 (ip), vehicle: saline 102 % of control | dose: 50.0 mg/kg/injection, schedule: Q04DX003 (ip), vehicle: saline 94 % of control | [3] 93 % of control | dose: 100.0 mg/kg/injection, schedule: Q01DX009 (ip), vehicle: saline 96 % of control | dose: 100.0 mg/kg/injection, schedule: Q04DX003 (ip), vehicle: saline 98 % of control | [4] 88 % of control

Cc1cccc(N(CCOC(=O)Nc2ccc(Cl)cc2)CCOC(=O)Nc2ccc(Cl)cc2)c1
inactive: [3] 94 % of control | [4] 94 % of control | dose: 400.0 mg/kg/injection, schedule: Q01DX001 (ip), vehicle: saline 96 % of control

CNC(=O)OCC(Cl)(Cl)Cl
inactive: [5] 97 % of control | [6] 96 % of control | [7] 98 % of control | [8] 100 % of control | [9] 95 % of control | dose: 400.0 mg/kg/injection, schedule: Q04DX003 (ip), vehicle: Klucel (hydroxypropylcellulose) (HPC) 100 % of control

CCCNC(=O)Sc1ccc(Cl)cc1
inactive: dose: 12.5 mg/kg/injection, schedule: Q01DX001 (ip), vehicle: Klucel (hydroxypropylcellulose) (HPC) 100 % of control | dose: 12.5 mg/kg/injection, schedule: Q01DX009 (ip), vehicle: Klucel (hydroxypropylcellulose) (HPC) 95 % of control and 110 % of control | dose: 25.0 mg/kg/injection, schedule: Q01DX001 (ip), vehicle: Klucel (hydroxypropylcellulose) (HPC) 95 % of control | dose: 25.0 mg/kg/injection, schedule: Q01DX009 (ip), vehicle: Klucel (hydroxypropylcellulose) (HPC) 97 % of control and 106 % of control | dose: 50.0 mg/kg/injection, schedule: Q01DX001 (ip), vehicle: Klucel (hydroxypropylcellulose) (HPC) 94 % of control | [10] 98 % of control | [11] 96 % of control | dose: 200.0 mg/kg/injection, schedule: Q04DX002 (ip), vehicle: Klucel (hydroxypropylcellulose) (HPC) 93 % of control and 86 % of control

Cc1ccc([N+](=O)[O-])cc1NC(=O)Oc1ccc2c(C)cc(=O)oc2c1
inactive: [11] 101 % of control | dose: 400.0 mg/kg/injection, schedule: Q04DX002 (ip), vehicle: Klucel (hydroxypropylcellulose) (HPC) 95 % of control

CCCCCCCCCCCCCCCCC1=NCCN1
inactive: dose: 5.0 mg/kg/injection, schedule: Q01DX009 (ip), vehicle: saline 91 % of control | dose: 10.0 mg/kg/injection, schedule: Q01DX001 (ip), vehicle: saline 94 % of control | dose: 10.0 mg/kg/injection, schedule: Q01DX009 (ip), vehicle: saline 91 % of control | dose: 10.0 mg/kg/injection, schedule: Q04DX003 (ip), vehicle: saline 94 % of control | dose: 20.0 mg/kg/injection, schedule: Q01DX001 (ip), vehicle: saline 97 % of control | dose: 20.0 mg/kg/injection, schedule: Q01DX009 (ip), vehicle: saline 88 % of control | dose: 20.0 mg/kg/injection, schedule: Q04DX003 (ip), vehicle: saline 93 % of control and 90 % of control | dose: 40.0 mg/kg/injection, schedule: Q01DX001 (ip), vehicle: saline 101 % of control | dose: 40.0 mg/kg/injection, schedule: Q04DX003 (ip), vehicle: saline 95 % of control and 88 % of control

O=C(OCC1OC(n2nnc3ccnc(Cl)c32)C(OC(=O)c2ccccc2)C1OC(=O)c1ccccc1)c1ccccc1 (configuration not stated)
inactive: dose: 50.0 mg/kg/injection, schedule: Q01DX005 (ip), vehicle: saline with Tween-80 93 % of control | dose: 100.0 mg/kg/injection, schedule: Q01DX005 (ip), vehicle: saline with Tween-80 98 % of control | dose: 200.0 mg/kg/injection, schedule: Q01DX005 (ip), vehicle: saline with Tween-80 104 % of control

O=c1c2c(oc3c(Cl)cc(Cl)cc13)CCCC2
inactive: dose: 50.0 mg/kg/injection, schedule: Q04DX002 (ip), vehicle: gum acacia 100 % of control | dose: 100.0 mg/kg/injection, schedule: Q04DX002 (ip), vehicle: gum acacia 104 % of control | dose: 200.0 mg/kg/injection, schedule: Q04DX002 (ip), vehicle: gum acacia 104 % of control

COc1ccccc1N1C(=O)C2C(C1=O)C1(Cl)C(Cl)=C(Cl)C2(Cl)C1(Cl)Cl (configuration not stated)
inactive: [10] 101 % of control | [5] 95 % of control | [6] 103 % of control | [7] 101 % of control and 92 % of control | [8] 109 % of control

COc1ccccc1-n1c(C)nc2c1C(=O)c1ccccc1C2=O
inactive: [12] 96 % of control | [13] 93 % of control | [14] 96 % of control

Cc1ccc(NC2=CC(=O)C(=O)c3ccccc32)cc1
inactive: [15] 103 % of control | [16] 98 % of control | dose: 400.0 mg/kg/injection, schedule: Q01DX001 (ip), vehicle: other 92 % of control

CCOc1ccc(C(=O)Nc2ccc(C3=NCCN3)cc2)cc1C(=O)Nc1ccc(C2=NCCN2)cc1
inactive: dose: 30.0 mg/kg/injection, schedule: Q01DX Z (oral), vehicle: saline 93 % of control | dose: 60.0 mg/kg/injection, schedule: Q01DX Z (oral), vehicle: saline 91 % of control | dose: 62.5 mg/kg/injection, schedule: Q01DX010 (oral), vehicle: saline 107 % of control | dose: 120.0 mg/kg/injection, schedule: Q01DX Z (oral), vehicle: saline 103 % of control | dose: 125.0 mg/kg/injection, schedule: Q01DX010 (oral), vehicle: saline 112 % of control | dose: 240.0 mg/kg/injection, schedule: Q01DX Z (oral), vehicle: saline 92 % of control | dose: 250.0 mg/kg/injection, schedule: Q01DX010 (oral), vehicle: saline 112 % of control | dose: 500.0 mg/kg/injection, schedule: Q01DX010 (oral), vehicle: saline 106 % of control

CC(C)NC(C)c1c[nH]c2ccccc12 (configuration not stated)
inactive: dose: 12.5 mg/kg/injection, schedule: Q04DX003 (ip), vehicle: Klucel (hydroxypropylcellulose) (HPC) 101 % of control | dose: 25.0 mg/kg/injection, schedule: Q04DX003 (ip), vehicle: Klucel (hydroxypropylcellulose) (HPC) 97 % of control | dose: 50.0 mg/kg/injection, schedule: Q04DX003 (ip), vehicle: Klucel (hydroxypropylcellulose) (HPC) 103 % of control

O=c1ccn(CCCc2ccccc2)c(=O)[nH]1
inactive: [5] 94 % of control | [7] 109 % of control | [9] 94 % of control

CCCP(=S)(C(C)C)C(C)C
inactive: [12] 103 % of control

Nc1cc(O)cc(O)c1
inactive: [1] 95 % of control | [12] 91 % of control | [2] 95 % of control | [13] 98 % of control | dose: 400.0 mg/kg/injection, schedule: Q01DX009 (ip), vehicle: saline with Tween-80 102 % of control | [14] 89 % of control

O=C(Nc1ccccc1)NC(C(=O)O)(c1ccccc1)c1ccccc1
inactive: dose: 50.0 mg/kg/injection, schedule: Q01DX001 (ip), vehicle: other 97 % of control | [15] 89 % of control | [16] 92 % of control

CCCCOP(=O)(OCCCC)Oc1c(Cl)c(Cl)c(Cl)c(Cl)c1Cl
inactive: dose: 100.0 mg/kg/injection, schedule: Q04DX002 (sc), vehicle: olive oil, sesame oil, peanut oil 107 % of control | dose: 200.0 mg/kg/injection, schedule: Q04DX002 (sc), vehicle: olive oil, sesame oil, peanut oil 100 % of control | dose: 400.0 mg/kg/injection, schedule: Q04DX002 (sc), vehicle: olive oil, sesame oil, peanut oil 104 % of control
